Laboratory results taken from the supplement of paper PMC6045584.
± gives the standard deviation of the averaged measurements.

Key:
MK0752 = compound: O=C(O)CC[C@H]1CC[C@@](c2cc(F)ccc2F)(S(=O)(=O)c2ccc(Cl)cc2)CC1 [MK0752]; assay: surviving fraction relative to DMSO-only wells; higher = less growth inhibition; conditions: exposure time: 5 days
Outline: (§1)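 At 250–500 cells per well in 384-well plates, log-phase tumour cell lines were seeded and, 24 hours on, exposed continuously for five days to inhibitors at 0.5, 1, 5, 10, 50, 100, 500 and 1000 nM. Viability readout was CellTiter-Glo luminescence, reported as surviving fraction normalised to the median of DMSO-only wells.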

MK2206 = compound: NC1(c2ccc(-c3nc4ccn5c(=O)[nH]nc5c4cc3-c3ccccc3)cc2)CCC1 [MK2206]; assay: as above; conditions: exposure time: 5 days
Outline: as §1

Row | Test System | surviving fraction (MK0752; 0.5 nM) | surviving fraction (MK0752; 1 nM) | surviving fraction (MK0752; 5 nM) | surviving fraction (MK0752; 10 nM) | surviving fraction (MK0752; 50 nM) | surviving fraction (MK0752; 100 nM) | surviving fraction (MK0752; 500 nM) | surviving fraction (MK0752; 1000 nM) | surviving fraction (MK2206; 0.5 nM) | surviving fraction (MK2206; 1 nM) | surviving fraction (MK2206; 5 nM) | surviving fraction (MK2206; 10 nM) | surviving fraction (MK2206; 50 nM) | surviving fraction (MK2206; 100 nM) | surviving fraction (MK2206; 500 nM) | surviving fraction (MK2206; 1000 nM)
1 | HSSYII SYNOVIAL | 0.985 ± 0.056 | 1 ± 0.056 | 1.03 ± 0.063 | 1.02 ± 0.059 | 1.018 ± 0.0035 | 1.01 ± 0.017 | 0.978 ± 0.029 | 0.955 ± 0.046 | 0.937 ± 0.019 | 0.9935 ± 0.0096 | 0.93 ± 0.042 | 0.984 ± 0.043 | 0.903 ± 0.059 | 0.921 ± 0.037 | 0.773 ± 0.024 | 0.738 ± 0.032
2 | HT1080 SOFT TISSUE | 0.997 ± 0.018 | 1.02 ± 0.034 | 1.04 ± 0.026 | 1 ± 0.051 | 0.948 ± 0.019 | 1.02 ± 0.04 | 0.984 ± 0.0089 | 0.989 ± 0.029 | 1.04 ± 0.028 | 1.02 ± 0.018 | 1.04 ± 0.018 | 1.06 ± 0.043 | 1.05 ± 0.026 | 1.05 ± 0.012 | 0.997 ± 0.049 | 0.951 ± 0.044
3 | HU09 BONE | 0.995 ± 0.11 | 1.06 ± 0.052 | 1.11 ± 0.052 | 1.181 ± 0.0032 | 1.12 ± 0.069 | 1.06 ± 0.088 | 0.984 ± 0.14 | 1.03 ± 0.063 | 0.85 ± 0.065 | 0.971 ± 0.0053 | 0.991 ± 0.18 | 1.06 ± 0.094 | 0.849 ± 0.039 | 0.63 ± 0.05 | 0.363 ± 0.034 | 0.272 ± 0.016
4 | JIMT1 BREAST | 0.966 ± 0.0054 | 0.988 ± 0.018 | 0.997 ± 0.042 | 0.97 ± 0.042 | 0.984 ± 0.021 | 1.04 ± 0.036 | 0.939 ± 0.021 | 0.997 ± 0.018 | 0.965 ± 0.025 | 0.996 ± 0.017 | 0.999 ± 0.049 | 1.02 ± 0.01 | 0.929 ± 0.012 | 0.917 ± 0.027 | 0.68 ± 0.023 | 0.633 ± 0.034
5 | JURKAT HAEMATOPOIETIC AND LYMPHOID TISSUE | 1.06 ± 0.026 | 1.07 ± 0.021 | 1.07 ± 0.012 | 1.02 ± 0.051 | 1.04 ± 0.017 | 1.01 ± 0.026 | 0.988 ± 0.04 | 0.976 ± 0.023 | 1 ± 0.013 | 1.03 ± 0.03 | 0.92 ± 0.016 | 0.987 ± 0.022 | 0.871 ± 0.0053 | 0.787 ± 0.025 | 0.471 ± 0.01 | 0.274 ± 0.0046
6 | KPD BONE | 0.998 ± 0.054 | 0.986 ± 0.046 | 1.12 ± 0.042 | 1.05 ± 0.035 | 1.053 ± 0.0087 | 1.1 ± 0.073 | 0.951 ± 0.067 | 0.915 ± 0.06 | 1 ± 0.043 | 0.979 ± 0.031 | 0.944 ± 0.075 | 0.931 ± 0.047 | 0.634 ± 0.013 | 0.467 ± 0.024 | 0.252 ± 0.0083 | 0.195 ± 0.0091
7 | LM7 BONE | 0.915 ± 0.045 | 0.93 ± 0.078 | 1.08 ± 0.096 | 0.996 ± 0.098 | 1.03 ± 0.035 | 1.05 ± 0.048 | 0.937 ± 0.11 | 0.945 ± 0.063 | 0.991 ± 0.019 | 0.998 ± 0.043 | 1.04 ± 0.046 | 1.03 ± 0.055 | 0.84 ± 0.069 | 0.818 ± 0.056 | 0.628 ± 0.041 | 0.579 ± 0.016
8 | MCF7 BREAST | 0.922 ± 0.075 | 0.916 ± 0.04 | 0.916 ± 0.0061 | 0.905 ± 0.076 | 0.976 ± 0.051 | 0.913 ± 0.07 | 0.964 ± 0.067 | 0.94 ± 0.029 | 0.947 ± 0.046 | 0.942 ± 0.052 | 0.933 ± 0.044 | 0.916 ± 0.034 | 0.882 ± 0.065 | 0.841 ± 0.078 | 0.659 ± 0.033 | 0.62 ± 0.042
9 | MDAMB134 BREAST | 1.08 ± 0.067 | 1.14 ± 0.093 | 0.96 ± 0.16 | 1.16 ± 0.079 | 0.922 ± 0.035 | 1.09 ± 0.14 | 1 ± 0.063 | 0.934 ± 0.014 | 1 ± 0.079 | 0.89 ± 0.29 | 0.921 ± 0.0014 | 0.891 ± 0.14 | 0.703 ± 0.016 | 0.783 ± 0.072 | 0.629 ± 0.13 | 0.673 ± 0.18
10 | MDAMB157 BREAST | 0.881 ± 0.054 | 0.981 ± 0.045 | 0.969 ± 0.14 | 1.05 ± 0.022 | 1.11 ± 0.16 | 1.02 ± 0.15 | 0.971 ± 0.07 | 0.962 ± 0.065 | 0.952 ± 0.052 | 0.999 ± 0.02 | 1.06 ± 0.026 | 0.963 ± 0.081 | 0.96 ± 0.053 | 0.949 ± 0.019 | 0.947 ± 0.048 | 0.904 ± 0.1
11 | MDAMB231 BREAST | 0.984 ± 0.033 | 0.993 ± 0.015 | 1.02 ± 0.019 | 1.01 ± 0.02 | 1.01 ± 0.013 | 1.01 ± 0.018 | 0.9137 ± 0.0079 | 0.877 ± 0.01 | 0.954 ± 0.019 | 1.006 ± 0.0089 | 0.976 ± 0.021 | 0.972 ± 0.024 | 0.903 ± 0.027 | 0.934 ± 0.033 | 0.869 ± 0.027 | 0.856 ± 0.011
